Test results taken from the supplement of paper PMC10627819.

Legend:
Experiment in all cases: Bliss interaction score (quartile over a dose matrix) (fitness difference); higher = more antagonism (negative = synergy)
B. subtilis 168 = system: B. subtilis 168
Outline: (§1)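 Each OD595 reading at entry into stationary phase was scaled to the robust mean of the untreated wells on its plate, with a ceiling of 1. These ratios define fitness, and single-drug fitness was inferred from combinations. The Bliss score compares observed fitness with the product-based expectation and is reported as quartiles across all replicate types, technical, biological and donor/recipient.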

S. aureus DSM 20231 = system: S. aureus DSM 20231
Outline: as §1

S. aureus Newman = system: S. aureus Newman
Outline: as §1

S. pneumoniae D39V = system: S. pneumoniae D39V
Outline: as §1
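Further: first quartile when negative (synergy) and third quartile when positive (antagonism).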

Structure (SMILES)	Bliss interaction score (B. subtilis 168)	Bliss interaction score (S. aureus DSM 20231)	Bliss interaction score (S. aureus Newman)	Bliss interaction score (S. pneumoniae D39V)	Bliss interaction score (B. subtilis 168; main component drawn)	Bliss interaction score (S. aureus DSM 20231; main component drawn)	Bliss interaction score (S. aureus Newman; main component drawn)	Bliss interaction score (S. pneumoniae D39V; main component drawn)
CC(=O)O[C@H]1C[C@@]2(C)[C@@H](C[C@@H](O)[C@H]3[C@@]4(C)CC[C@@H](O)[C@@H](C)[C@@H]4CC[C@@]32C)/C1=C(\CCC=C(C)C)C(=O)O [Fusidic acid] + Cc1cc(NS(=O)(=O)c2ccc(N)cc2)no1 [Sulfamethoxazol]	0.0933	-0.0234	-0.026	0.0975	–	–	–	–
CC[C@H]1OC(=O)[C@H](C)[C@@H](O[C@H]2C[C@@](C)(OC)[C@@H](O)[C@H](C)O2)[C@H](C)[C@@H](O[C@@H]2O[C@H](C)C[C@H](N(C)C)[C@H]2O)[C@](C)(OC)C[C@@H](C)C(=O)[C@H](C)[C@@H](O)[C@]1(C)O [Clarithromycin] + CN(C)[C@@H]1C(O)=C(C(N)=O)C(=O)[C@@]2(O)C(O)=C3C(=O)c4c(O)ccc(Cl)c4[C@@](C)(O)[C@H]3C[C@@H]12 [Clortetracycline]	-0.392	-0.28	-0.094	0.0391	–	–	–	–
O=C(O[C@@H]1Cc2c(O)cc(O)cc2O[C@@H]1c1cc(O)c(O)c(O)c1)c1cc(O)c(O)c(O)c1 [EGCG] + CO[C@@]12[C@H](COC(N)=O)C3=C(C(=O)C(C)=C(N)C3=O)N1C[C@@H]1N[C@@H]12 [MitomycinC]	-0.0639	-0.0345	0.051	0.0987	–	–	–	–
CCC[C@@H]1C[C@@H](C(=O)N[C@@H]([C@H]2O[C@H](SC)[C@H](O)[C@@H](O)[C@H]2O)[C@H](C)Cl)N(C)C1 [Clindamycin] + CC[C@H]1OC(=O)[C@H](C)[C@@H](O[C@H]2C[C@@](C)(OC)[C@@H](O)[C@H](C)O2)[C@H](C)[C@@H](O[C@@H]2O[C@H](C)C[C@H](N(C)C)[C@H]2O)[C@](C)(O)C[C@@H](C)C(=O)[C@H](C)[C@@H](O)[C@]1(C)O [Erythromycin]	0.0748	-0.0244	-0.0542	0.123	–	–	–	–
CC(=O)OC[C@H]1O[C@@H]([S-])[C@H](OC(C)=O)[C@@H](OC(C)=O)[C@@H]1OC(C)=O.CCP(CC)CC.[Au+] [Auranofin] + CCN(CC)CCOC(=O)c1ccc(N)cc1 [Procaine]	-0.0372	-0.0516	-0.0631	-0.0391	–	–	–	–
O=C(N[C@H](CO)[C@H](O)c1ccc([N+](=O)[O-])cc1)C(Cl)Cl [Chloramphenicol] + CCC(C)C1C(=O)NC(=C)C(=O)NC(C(=O)NC(CSCC(C(=O)N1)NC(=O)/C(=C/C)/NC(=O)C(C(C)CC)N)C(=O)NC2C(SCC(NC(=O)CNC(=O)C3CCCN3C2=O)C(=O)NC(CCCCN)C(=O)NC4C(SCC(NC(=O)CNC(=O)C(NC(=O)C(NC(=O)C(NC(=O)CNC4=O)C)CC(C)C)CCSC)C(=O)NC(CC(=O)N)C(=O)NC(CCSC)C(=O)NC(CCCCN)C(=O)NC5C(SCC6C(=O)NC(C(=O)NC(CSC(C(C(=O)N6)NC(=O)C(NC5=O)C)C)C(=O)NC(CO)C(=O)NC(C(C)CC)C(=O)NC(CC7=CN=CN7)C(=O)NC(C(C)C)C(=O)NC(=C)C(=O)NC(CCCCN)C(=O)O)CC8=CN=CN8)C)C)C)CC(C)C [Nisin]	–	–	–	–	0.0397	-0.0704	0.0543	-0.102
CC(=O)O[C@H]1C[C@@]2(C)[C@@H](C[C@@H](O)[C@H]3[C@@]4(C)CC[C@@H](O)[C@@H](C)[C@@H]4CC[C@@]32C)/C1=C(\CCC=C(C)C)C(=O)O [Fusidic acid] + CC1(C)S[C@@H]2[C@H](NC(=O)Cc3ccccc3)C(=O)N2[C@H]1C(=O)O [PenicillinG]	0.0421	0.0382	-0.0384	0.0666	–	–	–	–
N[C@@H]1CONC1=O [CycloserineD] + CCN(CC)CCOC(=O)c1ccc(N)cc1 [Procaine]	-0.0484	0.0639	0.0381	-0.0723	–	–	–	–
N[C@@H]1CONC1=O [CycloserineD] + CN[C@@H]1[C@H](O)[C@H](NC)[C@H]2O[C@@]3(O)C(=O)C[C@@H](C)O[C@H]3O[C@@H]2[C@H]1O [Spectinomycin]	-0.034	0.0625	0.0506	0.11	–	–	–	–
N[C@@H]1CONC1=O [CycloserineD] + CC(C1CCC(C(O1)OC2C(CC(C(C2O)OC3C(C(C(CO3)(C)O)NC)O)N)N)N)NC [Gentamicin]	–	–	–	–	-0.0482	-0.125	0.0356	-0.0744
CC(=O)OC[C@H]1O[C@@H]([S-])[C@H](OC(C)=O)[C@@H](OC(C)=O)[C@@H]1OC(C)=O.CCP(CC)CC.[Au+] [Auranofin] + O=C(N[C@H](CO)[C@H](O)c1ccc([N+](=O)[O-])cc1)C(Cl)Cl [Chloramphenicol]	0.0717	0.0319	0.0594	-0.0406	–	–	–	–
CC(=O)O[C@H]1C[C@@]2(C)[C@@H](C[C@@H](O)[C@H]3[C@@]4(C)CC[C@@H](O)[C@@H](C)[C@@H]4CC[C@@]32C)/C1=C(\CCC=C(C)C)C(=O)O [Fusidic acid] + CN(C)c1cc(NC(=O)CNC(C)(C)C)c(O)c2c1C[C@H]1C[C@H]3[C@H](N(C)C)C(O)=C(C(N)=O)C(=O)[C@@]3(O)C(O)=C1C2=O [Tigecycline]	0.074	-0.0504	0.0375	-0.0713	–	–	–	–
CCC[C@@H]1C[C@@H](C(=O)N[C@@H]([C@H]2O[C@H](SC)[C@H](O)[C@@H](O)[C@H]2O)[C@H](C)Cl)N(C)C1 [Clindamycin] + CO[C@@]12[C@H](COC(N)=O)C3=C(C(=O)C(C)=C(N)C3=O)N1C[C@@H]1N[C@@H]12 [MitomycinC]	0.0747	-0.0349	0.0745	0.0747	–	–	–	–
N[C@@H]1CONC1=O [CycloserineD] + CO[C@@H]1[C@@H](OC(N)=O)[C@@H](O)[C@H](Oc2ccc3c(O)c(NC(=O)c4ccc(O)c(CC=C(C)C)c4)c(=O)oc3c2C)OC1(C)C [Novobiocin]	0.0651	0.0888	0.0912	0.187	–	–	–	–
CC(=O)OC[C@H]1O[C@@H]([S-])[C@H](OC(C)=O)[C@@H](OC(C)=O)[C@@H]1OC(C)=O.CCP(CC)CC.[Au+] [Auranofin] + COc1c(N2C[C@@H]3CCCN[C@@H]3C2)c(F)cc2c(=O)c(C(=O)O)cn(C3CC3)c12 [Moxifloxacin]	0.031	0.0832	0.105	-0.051	–	–	–	–
